Experiments:
[1] = Product Sustainability Scorecard: process safety with regard to ecological toxicity (Product EcoTox score from GHS H-phrases and supplier score); settings: consolidated scorecard score, normalized scale 0 to 100 without dimension
Description: (§1) Hazard statements form part of the ‘Globally Harmonized System of Classification and Labelling of Chemicals’ (GHS). They are intended to form a set of standardized phrases about the hazards of chemical substances and mixtures.
(§2) H200: Physical Hazards (=Toxicity and Eco Toxicity)
H400: Environmental Hazards (=Eco Toxicity)
(§3) Scheme 4 and 5: Scoring • STEP 1 Evaluation of the ‘(Eco) Toxicity Material Score’ and ‘Critical By-Product Score’ of each reactant and its potential by-products based on the safety according to material properties:
(§4) • STEP 2 Evaluation of the ‘(Eco) Tox Supplier Score’ of each reactant based on process safety according to chemical handling (see appendix for further information):
(§5) • STEP 3 Calculation of the overall ‘(Eco) Tox Score’ of each reactant and the final product. […] If the supplier score is better, it outweighs the material score—following the assumption that a safe and controlled production environment is able to avert the risks of hazardous materials: MAX(‘(Eco) Tox Material Score’;‘(Eco) Tox Supplier Score’)=(Eco) Tox Score • (ii) Composed products: For composed products the (Eco) Tox Score combines the hazard and supplier information of the composed product itself (calculated as above) with the (Eco) Tox Score of its reactants. […]

[2] = Product Sustainability Scorecard: process safety with regard to human toxicity (Product Tox score from GHS H-phrases and supplier score); settings: consolidated scorecard score, normalized scale 0 to 100 without dimension
Description: as §1, §2
H300: Health Hazards (=Toxicity)
as §3, §4, §5
The score for the overall human toxicity S(HTOX) is calculated according to the following equation (4): S(HTOX)=⅔*MAX(Ma;Pa)+⅓*(Mb*Cb)+ . . . […]

[3] = Product Sustainability Scorecard: biodegradability score according to OECD Method 301/302; settings: consolidated scorecard score, scale 0 to 100; score equals % biodegradation after 28-day OECD 301 test
Procedure: Biodegradation is one of the most important factors in assessing the environmental fate of chemicals. Biodegradation is the chemical dissolution of materials by bacteria, fungi, or other biological means. Biodegradability is evaluated according to the OECD Method 301/302 or equivalent. The tests of the OECD test series 301 (A-F) verify whether a substance is able for complete biodegradation under aerobic conditions. Different test methods are available for well or poorly soluble as well as volatile substances. The test usually takes 28 days. Test items must reach 60% biodegradation within 10 days to be classified as ‘ready biodegradable’.
Scheme 1: Scoring • STEP 1 Evaluation of the “Biodegradability Score” of the fragrance raw material based on the following scoring system
The score for biodegradability of the compound or the compounds is evaluated according to OECD Method 301/302 or equivalent.

44_Dihydro Myrcenol [44DHM]
Product EcoTox [1]: 87.73 | Product Tox [2]: 80.38 | Biodegradability [3]: 100.00

From patent publication US10942159B2, “Product sustainability scorecard” (Symrise AG, priority 2016, dated 2021)
